Patent US9458179B2, “Quinuclidine, 1-azabicyclo[2.2.1]heptane, 1-azabicyclo [3.2.1]octane, and 1-azabicyclo[3.2.2]nonane compounds as alpha-7 nicotinic acetylcholine receptor ligands” (BRISTOL-MYERS SQUIBB COMPANY, priority 2012, dated 2016)
Read-outs that look alike come from different tables or passages of the source.

Molecular target: T1, α-7 nicotinic ACh receptor ion channel (Rattus norvegicus, UniProt Q05941)
T1 construct: expressed in transfected cells
Assay: Ca2+-sensitive fluorescence-based FLIPR assay of α7 nicotinic receptor channel function (agonist activity)
Type: cell-based
Conditions: HEK 293 cells, Ca2+ flux
Protocol: II) A Ca^2+-Sensitive, Fluorescence-Based Assay α-7 for Nicotinic Acetylcholine Receptor Channel Function in Mammalian Cells (“FLIPR”).
Lead compounds are evaluated for agonist activity at α-7, α3β4, α4αβ2, and α1β1δ1ε sub-types of nicotinic ACh receptor ion channels expressed in mammalian HEK 293 cells. Agonist potency and efficacy values are determined from kinetic fluorescence Ca^2+ influx measurements made using a 384 well FLIPR (Fluorescence Image Plate Reader). […] In this assay, channel expressing HEK cell lines seeded in 384 well assay plates are loaded with a membrane permeant fluorescent Ca^2+ indicator dye, whose 510 nm green emission signal increases in response to elevation of intracellular Ca^2+ concentration. The basal fluorescence from the cells is monitored in real time, followed by the acute addition of test compounds.
Reagents: The acetomethoxy (AM) ester of the Ca^2+ indicator dye Fluo-4 was obtained from InVitrogen, (Carlsbad, Calif.). Acetylcholine and all buffer constituents were purchased from Sigma Chemical Company, St. Louis, Mo. G418 and Minimal Essential Medium were purchased from InVitrogen Life Technologies, Carlsbad, Calif. Fetal bovine serum was purchased from (InVitrogen, Carlsbad, Calif.).
HEK-293 cells were grown in Minimal Essential Medium containing 10% (v/v) fetal bovine serum at 37° C. in a 5% CO2 incubator. HEK-293 cells stably expressing the ion channels were grown in the same medium with the addition of 500 μg/ml G418.
HEK-293 cells expressing the ion channels of interest were plated in 384 well, black-walled, clear-bottomed, poly-D-lysine coated plates at a density of ˜20,000 cells/well in 20 μl of Minimal Essential Medium containing 10% (v/v) fetal bovine serum and incubated for 2 days at 29° C. in a 5% CO2 incubator. Prior to assay, cells were loaded with the Fluo-4 AM ester. […] Dye loading was allowed to proceed for 90 minutes at room temperature at which time the dye loading solution was removed and replaced with 40 μl/well of Hanks buffer. Cells loaded with dye were loaded onto a FLIPR384 (Molecular Devices, Sunnyvale, Calif.). […] Emission was filtered using a 540+/−30 nm bandpass filter. For evaluation of the effects of test compounds using the Ca^2+ flux assay, compounds to be tested were provided in assay ready plates. For nicotinic receptor ion channel expressing cells, the assay was initiated by the addition of 20 μl/well of Hanks buffer containing test compounds. For all assays, data were collected at 1 Hz for 10 seconds (baseline), at which time the compound containing stimulus buffers are added, and further measurements collected at 0.33 Hz for 3 min.
The statistical robustness of the nicotinic receptor Ca^2+ flux assays is determined from blanks and totals wells. […] The raw fluorescence units data files generated on the FLIPR plate reader are automatically exported and processed by in-house data analysis tools. The reduced percent activation data for each concentration of test compound are fit using MathIQ fitting engine (ID Business Solutions Limited, Surrey, UK). Data were analyzed by fitting maximum amplitudes of change in fluorescence, for Ca^2+ flux for a given condition of test compound. […] Test compound efficacy values (Ymax values) are expressed relative to a maximal response to acetylcholine in the total wells.

[1] = FLIPR α7-HI (EC50, nM), Table 1, activity class
[2] = FLIPR α7-HI (EC50, nM), Table 3
[3] = FLIPR α7-HI (EC50, nM), Table 3, activity class

T1 sequence (Q05941 23-502): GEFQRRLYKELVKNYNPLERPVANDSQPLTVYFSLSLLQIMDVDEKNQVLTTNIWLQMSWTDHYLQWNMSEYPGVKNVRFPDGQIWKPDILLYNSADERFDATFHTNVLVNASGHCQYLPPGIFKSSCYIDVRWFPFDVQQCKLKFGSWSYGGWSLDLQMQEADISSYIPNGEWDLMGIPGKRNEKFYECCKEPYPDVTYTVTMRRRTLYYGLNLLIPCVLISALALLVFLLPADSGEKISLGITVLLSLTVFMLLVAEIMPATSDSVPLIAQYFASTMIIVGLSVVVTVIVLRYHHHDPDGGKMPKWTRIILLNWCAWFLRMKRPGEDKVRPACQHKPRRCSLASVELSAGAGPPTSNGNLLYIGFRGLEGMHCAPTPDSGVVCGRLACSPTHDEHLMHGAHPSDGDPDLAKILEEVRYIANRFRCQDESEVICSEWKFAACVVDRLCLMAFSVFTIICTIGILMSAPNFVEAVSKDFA

Row | SMILES | EC50 [1] | further results
1 | Brc1ccc2c(NC3=NCC4(CN5CCC4CC5)N3)ncnn12 (stereo not shown) [Example 66] | 100 to 1000 nM | –
2 | CN1C(Nc2nccs2)=NCC12CN1CCC2CC1 (stereo not shown) [Example 10] | 1000 to 100000 nM | –
3 | c1ccc2cc(NC3=NCCC4(CN5CCC4CC5)O3)ncc2c1 (stereo not shown) [Example 76] | – | EC50 [2]: 264 nM; EC50 [3]: 100 to 1000 nM
4 | c1ccn2nc(NC3=NCC4(CN5CCC4CC5)N3)nc2c1 (stereo not shown) [Example 34] | 100 to 1000 nM | –
5 | Cc1ccc2nc(NC3=NCC4(CN5CCC4CC5)N3)oc2c1 (stereo not shown) [Example 8a] | < 100 nM | –
6 | Fc1ccc2nc(NC3=NCC4(CN5CCC4CC5)N3)sc2n1 (stereo not shown) [Example 44, N-(5-Fluoro[1,3]thiazolo[5,4-b]pyridin-2-yl)-1′,5′-dihydrospiro[4-azabicyclo[2.2.2]octane-2,4′-imidazol]-2′-amine] | 100 to 1000 nM | –
7 | CN1C(Nc2ncc3ccccc3n2)=NCC12CN1CCC2CC1 (stereo not shown) [Example 27] | 1000 to 100000 nM | –
8 | CN1CC2(CN3CCC2CC3)O/C1=N\c1ncc(-c2ccccc2)s1 (stereo not shown) [Example 90, (Z)—N-(3-Methyl-1′-azaspiro[oxazolidine-5,3′-bicyclo[2.2.2]octane]-2-ylidene)-5-phenylthiazol-2-amine] | – | EC50 (FLIPR α7-HI (EC50, nM), Table 4, activity class): 100 to 1000 nM
9 | Clc1ccc2nc(NC3=NCC4(CN5CCC4CC5)N3)sc2n1 (single isomer, unassigned) [Example 28b] | 1000 to 100000 nM | –
10 | CCN1C(Nc2nc3ccc(OC)cc3s2)=NCC12CN1CCC2CC1 (stereo not shown) [Example 3] | 100 to 1000 nM | –
11 | c1ccc2cc(NC3=NCCC4(CN5CCC4CC5)O3)ncc2c1 (single isomer, unassigned) [Example 76b] | – | EC50 [3]: > 1e+06 nM
12 | CN1C(Nc2ncc(-c3ccccc3)s2)=NCC12CN1CCC2CC1 (stereo not shown) [Example 5] | 1000 to 100000 nM | –
13 | Brc1ccc2nc(NC3=NCCC4(CN5CCC4CC5)O3)sc2n1 (stereo not shown) [Example 87] | – | EC50 [3]: 1000 to 100000 nM
14 | CN1C(Nc2nc3ccccn3n2)=NCC12CN1CCC2CC1 (stereo not shown) [Example 35] | 1000 to 100000 nM | –
15 | Fc1cccc2sc(NC3=NCC4(CN5CCC4CC5)N3)nc12 (stereo not shown) [Example 55] | < 100 nM | –
16 | COc1cc(NC2=NCCC3(CN4CCC3CC4)O2)ncn1 (stereo not shown) [Example 80] | – | EC50 [2]: 3650 nM; EC50 [3]: 1000 to 100000 nM
17 | c1ccn2cc(NC3=NCC4(CN5CCC4CC5)N3)nc2c1 (stereo not shown) [Example 37] | 1000 to 100000 nM | –
18 | CN1C(Nc2nc3ccc(Br)nc3s2)=NCC12CN1CCC2CC1 (stereo not shown) [Example 50] | 1000 to 100000 nM | –
19 | Cc1ccc2nc(NC3=NCC4(CN5CCC4CC5)N3)sc2c1 (stereo not shown) [Example 63, N-(3,5-dihydro-1′-azaspiro[imidazole-4,3′-bicyclo[2.2.2]octane]-2-yl)-6-methylbenzo[d]thiazol-2-amine] | 100 to 1000 nM | –

Row | SMILES | EC50 [1] | further results
20 | Cc1nnc(NC2=NCC3(CN4CCC3CC4)N2C)nc1C (stereo not shown) [Example 22] | > 1e+06 nM | –
21 | Cc1nnc(NC2=NCCC3(CN4CCC3CC4)O2)nc1C (stereo not shown) [Example 81] | – | EC50 [3]: 1000 to 100000 nM
22 | Cc1ccc2nc(NC3=NCC4(CN5CCC4CC5)N3)oc2c1 (stereo not shown) [Example 8b] | 1000 to 100000 nM | –
23 | c1cnc2sc(NC3=NCC4(CN5CCC4CC5)N3)nc2n1 (stereo not shown) [Example 32, N-[1,3]Thiazolo[4,5-b]pyrazin-2-yl-1′,5′-dihydrospiro[4-azabicyclo[2.2.2]octane-2,4′-imidazol]-2′-amine] | 100 to 1000 nM | –
24 | CN1C(Nc2ccc(Cl)nn2)=NCC12CN1CCC2CC1 (stereo not shown) [Example 26] | 100 to 1000 nM | –
25 | COc1ncnc2sc(NC3=NCC4(CN5CCC4CC5)N3)nc12 (stereo not shown) [Example 38] | 1000 to 100000 nM | –
26 | c1ccc(-c2cnc(NC3=NCCC4(CN5CCC4CC5)O3)s2)cc1 (stereo not shown) [Example 71] | – | EC50 [2]: 87 nM; EC50 [3]: < 100 nM
27 | CN1C(Nc2ccc(Cl)cn2)=NCC12CN1CCC2CC1 (stereo not shown) [Example 14] | 1000 to 100000 nM | –
28 | Clc1ccc2nc(NC3=NCC4(CN5CCC4CC5)N3)sc2n1 (single isomer, unassigned) [Example 28a] | < 100 nM | –
29 | CN1C(Nc2cc3ccccc3cn2)=NCC12CN1CCC2CC1 (stereo not shown) [Example 15] | 100 to 1000 nM | EC50 (FLIPR α7-HI (EC50, nM)): 787 nM
30 | Brc1ccc2nc(NC3=NCC4(CN5CCC4CC5)N3)sc2n1 (stereo not shown) [Example 49] | 100 to 1000 nM | –
31 | Clc1ccc(NC2=NCC3(CN4CCC3CC4)N2)nc1 (stereo not shown) [Example 13] | 1000 to 100000 nM | –
32 | CN1C(Nc2nc3cc(Cl)ccc3o2)=NCC12CN1CCC2CC1 (stereo not shown) [Example 58] | 100 to 1000 nM | –
33 | c1ccc2nc(NC3=NCCC4(CN5CCC4CC5)O3)ncc2c1 (stereo not shown) [Example 84] | – | EC50 [3]: 100 to 1000 nM
34 | c1ccc2[nH]c(NC3=NCCC4(CN5CCC4CC5)O3)nc2c1 (stereo not shown) [Example 77] | – | EC50 (Table 3, activity class, read-out: FLIPR α7-HI (EC50)): > 1e+06 nM; EC50 (Table 3, read-out: FLIPR α7-HI (EC50)): > 100000 nM
35 | Cc1cnc2nc(NC3=NCC4(CN5CCC4CC5)N3)sc2n1 (stereo not shown) [Example 41] | 1000 to 100000 nM | –
36 | Cc1nc(C)nc(NC2=NCC3(CN4CCC3CC4)N2)n1 (stereo not shown) [Example 43] | 1000 to 100000 nM | –
37 | COc1ccc2sc(NC3=NCC4(CN5CCC4CC5)N3)nc2c1 (stereo not shown) [Example 54] | 100 to 1000 nM | –
38 | CN1C(Nc2nc3ccc(Cl)nc3s2)=NCC12CN1CCC2CC1 (stereo not shown) [Example 29] | 100 to 1000 nM | –

Row | SMILES | EC50 [1] | further results
39 | c1ccc2[nH]c(NC3=NCC4(CN5CCC4CC5)N3)nc2c1 (stereo not shown) [Example 16] | – | EC50 (read-out: FLIPR α7-HI (EC50)): 1290 nM
40 | c1ccc2nc(NC3=NCCC4(CN5CCC4CC5)O3)ccc2c1 (stereo not shown) [Example 86] | – | EC50 [2]: 1810 nM; EC50 [3]: 1000 to 100000 nM
41 | Cc1ccc2nc(NC3=NCC4(CN5CCC4CC5)N3)oc2n1 (stereo not shown) [Example 62, N-(3,5-Dihydro-1′-azaspiro[imidazole-4,3′-bicyclo[2.2.2]octane]-2-yl)-5-methyloxazolo[5,4-b]pyridin-2-amine] | 100 to 1000 nM | –
42 | CN1C(Nc2ncnc3ccccc23)=NCC12CN1CCC2CC1 (stereo not shown) [Example 24] | 1000 to 100000 nM | –
43 | FC(F)(F)c1ccc2c(NC3=NCC4(CN5CCC4CC5)N3)n[nH]c2c1 (stereo not shown) [Example 51] | > 1e+06 nM | –
44 | Clc1ccc(NC2=NCC3(CN4CCC3CC4)N2)nn1 (stereo not shown) [Example 25] | 1000 to 100000 nM | –
45 | CN1C(Nc2nc3ccccc3o2)=NCC12CN1CCC2CC1 (stereo not shown) [Example 60] | 100 to 1000 nM | –
46 | COc1ncc2nc(NC3=NCC4(CN5CCC4CC5)N3)sc2n1 (stereo not shown) [Example 19, N-(5-Methoxy[1,3]thiazolo[5,4-d]pyrimidin-2-yl)-1′,5′-dihydrospiro[4-azabicyclo[2.2.2]octane-2,4′-imidazol]-2′-amine] | 1000 to 100000 nM | –
47 | CN1C(Nc2ccc3ccccc3n2)=NCC12CN1CCC2CC1 (stereo not shown) [Example 40] | 100 to 1000 nM | EC50 (FLIPR α7-HI (EC50, nM)): 942 nM
48 | Clc1ccc(NC2=NCCC3(CN4CCC3CC4)O2)nn1 (stereo not shown) [Example 83] | – | EC50 [3]: 1000 to 100000 nM
49 | Clc1ccc(NC2=NCCC3(CN4CCC3CC4)O2)nc1 (stereo not shown) [Example 75] | – | EC50 [3]: 1000 to 100000 nM
50 | c1ccc2oc(NC3=NCC4(CN5CCC4CC5)N3)nc2c1 (stereo not shown) [Example 59] | < 100 nM | –
51 | COc1ccc2nc(NC3=NCC4(CN5CCC4CC5)N3)sc2c1 (stereo not shown) [Example 1, N-(6-Methoxy-1,3-benzothiazol-2-yl)-1′,5′-dihydrospiro[4-azabicyclo[2.2.2]octane-2,4′-imidazol]-2′-amine] | 100 to 1000 nM | –
52 | COc1ccc2nc(NC3=NC4(CO3)CN3CCC4CC3)sc2c1 (stereo not shown) [Example 67, N-(6-Methoxybenzo[d]thiazol-2-yl)-5H-1′-azaspiro[oxazole-4,3′-bicyclo[2.2.2]octan]-2-amine] | – | EC50 (FLIPR α7-HI (EC50, nM), Table 2, activity class column): 1000 to 100000 nM
53 | CN1C(Nc2ncc(Cl)cn2)=NCC12CN1CCC2CC1 (stereo not shown) [Example 18] | 100 to 1000 nM | –
54 | COc1ncc2nc(NC3=NCCC4(CN5CCC4CC5)O3)sc2n1 (stereo not shown) [Example 79, N-(5-Methoxythiazolo[5,4-d]pyrimidin-2-yl)-4,5-dihydro-1′-azaspiro[[1,3]oxazine-6,3′-bicyclo[2.2.2]octan]-2-amine] | – | EC50 [3]: 1000 to 100000 nM
55 | Clc1cnc(NC2=NCC3(CN4CCC3CC4)N2)nc1 (stereo not shown) [Example 17] | 100 to 1000 nM | EC50 (FLIPR α7-HI (EC50, nM)): 286 nM
56 | c1ccc2c(NC3=NCCC4(CN5CCC4CC5)O3)ncnc2c1 (stereo not shown) [Example 82] | – | EC50 [3]: 100 to 1000 nM
